Test results: article PMC5469811, “Identification of GXXXXG motif in Chrysophsin-1 and its implication in the design of analogs with cell-selective antimicrobial and anti-endotoxin activities” (Scientific Reports, 2017)
≈ marks a conversion by molar mass, not a printed value. Residues, ends and D or L forms follow the SMILES beside them.

Key:
E. coli ATCC 25922 [1] = assay: Synergy with conventional antibiotics, checkerboard titration; format: cell-based, Escherichia coli
Procedure, shortened: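 Checkerboard of 2-fold serial dilutions of peptide and antibiotic combined with log-phase bacteria, incubated 24 h at 37 °C. FIC index computed from combination versus single-agent MICs: <0.5 synergy, 0.5–1.0 additive, 1.0–4.0 indifferent, >4.0 antagonism.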

E. coli (ATCC 25922) = format: cell-based, Escherichia coli; settings: ATCC 25922, 1 h
Procedure, shortened: (§1)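 E. coli ATCC 25922 at 10^6 CFU/ml in MH broth with physiological divalent and monovalent salts was exposed to serial peptide dilutions, 18 h shaking at 37 °C, and MIC read. Variants: peptides preheated 1 h at 4, 60 or 90 °C, or assay diluent with 10% fetal bovine serum, 0.4% BSA, 0.02% acetic acid.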

E. coli ATCC 25922 [2] = format: cell-based, Escherichia coli; settings: ATCC 25922, 18 h
Procedure, shortened: as §1

[3] = tested on: TNF-α in serum of BALB/c mice injected with E. coli ATCC 25922; assay: In vivo TNF-α production after E. coli infection; settings: BALB/c mice injected with mid-logarithmic phase E. coli ATCC 25922; two hours post infection; ELISA; versus untreated group
Method: Serum was isolated from the blood obtained by bleeding the mice retro-orbitally two hours post infection and ELISA was performed to determine the amount of TNF-α produced in the untreated group and the peptide-treated group.

[4] = tested on: Bacillus subtilis (ATCC 6633); assay: microbe, parasite or virus in culture; format: cell-based; settings: ATCC 6633; read-out: Minimum inhibitory concentration (MIC)
Procedure, shortened: (§2)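 Compounds are diluted two-fold serially and tested against each bacterial strain to find the minimum inhibitory concentration. The assay is repeated thrice, and the reported MIC is the average.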

[5] = tested on: Escherichia coli (ATCC 9637); assay: microbe, parasite or virus in culture; format: cell-based; settings: ATCC 9637; read-out: Minimum inhibitory concentration (MIC)
Procedure, shortened: as §2

[6] = tested on: Pseudomonas aeruginosa (ATCC BAA-427); assay: microbe, parasite or virus in culture; format: cell-based; settings: ATCC BAA-427; read-out: Minimum inhibitory concentration (MIC)
Procedure, shortened: as §2

[7] = tested on: Staphylococcus aureus (ATCC 700699 MRSA); assay: microbe, parasite or virus in culture; format: cell-based; settings: ATCC 700699; read-out: Minimum inhibitory concentration (MIC)
Procedure, shortened: as §2

[8] = tested on: Escherichia coli (ATCC 25922); assay: microbe, parasite or virus in culture; format: cell-based; settings: ATCC 25922; read-out: Minimum inhibitory concentration (MIC)
Procedure, shortened: as §2

[9] = tested on: Staphylococcus aureus (ATCC 700698 MRSA); assay: microbe, parasite or virus in culture; format: cell-based; settings: ATCC 700698; read-out: Minimum inhibitory concentration (MIC)
Procedure, shortened: as §2

[10] = tested on: Staphylococcus aureus (ATCC 25923); assay: microbe, parasite or virus in culture; format: cell-based; settings: ATCC 25923; read-out: Minimum inhibitory concentration (MIC)
Procedure, shortened: as §2

[11] = tested on: Staphylococcus aureus (ATCC 29213); assay: microbe, parasite or virus in culture; format: cell-based; settings: ATCC 29213; read-out: Minimum inhibitory concentration (MIC)
Procedure, shortened: as §2

[12] = tested on: Staphylococcus aureus (ATCC 33592) Methicillin resistant Genatmicin resistant; assay: microbe, parasite or virus in culture; format: cell-based; settings: ATCC 33592; read-out: Minimum inhibitory concentration (MIC)
Procedure, shortened: as §2

[13] = tested on: Klebsiella pneumoniae (ATCC 27736); assay: microbe, parasite or virus in culture; format: cell-based; settings: ATCC 27736; read-out: Minimum inhibitory concentration (MIC)
Procedure, shortened: as §2

[14] = tested on: Candida albicans (ATCC 10231); assay: microbe, parasite or virus in culture; format: cell-based; settings: ATCC 10231, 48 h; read-out: Minimum inhibitory concentration (MIC)
Method: (§3) The anti- fungal activity of peptides was performed according to the standard micro broth dilution technique as per NCCLS guidelines. These plates were incubated in a moist chamber at 35 °C, and an absorbance at 492 nm was recorded on a VersaMax microplate reader after 48 h for C. albicans ATCC 10231 and C. parapsilosis ATCC 22019 and 72 h for C. neoformans.

Cryptococcus neoformans = assay: microbe, parasite or virus in culture; format: cell-based; settings: 72 h; read-out: Minimum inhibitory concentration (MIC)
Method: as §3

[15] = tested on: Candida parapsilosis (ATCC 22019); assay: microbe, parasite or virus in culture; format: cell-based; settings: ATCC 22019, 48 h; read-out: Minimum inhibitory concentration (MIC)
Method: as §3

[16] = tested on: BALB/c mice challenged with lethal dose of LPS; assay: Anti-LPS survival assay; format: in vivo, mouse; settings: LPS 15 mgKg−1 i.p. plus peptide single dose 5 mgKg−1, 7 days, five mice per group, LPS-only mice all died within 24 h
Method: For survival assay, mice were challenged intraperitoneally with LPS at a lethal dose of 15 mgKg^−1 E. coli 0111:B4[5]. Control mice were injected with an equal volume of PBS. G13P-Chr-1 at a single dose of 5 mgKg^−1 was injected in the mice groups that were already administered with 15 mgKg^−1 of LPS. Each group contained five mice. The mortality of mice was monitored up to 7 days and weight change was monitored every day. The peptide G13P-Chr-1 only was also injected in two groups of mice at 5 mgKg^−1 and 10 mgKg^−1 to check any mortality in mice by peptide only treatment.

CC[C@H](C)[C@H](NC(=O)[C@H](C)NC(=O)[C@H](CCCCN)NC(=O)[C@@H]1CCCN1C(=O)[C@H](C)NC(=O)[C@H](Cc1c[nH]cn1)NC(=O)[C@@H](NC(=O)[C@H](C)NC(=O)CNC(=O)[C@H](CCCCN)NC(=O)[C@@H](NC(=O)[C@H](CC(C)C)NC(=O)[C@H](Cc1c[nH]c2ccccc12)NC(=O)CNC(=O)[C@H](Cc1ccccc1)NC(=O)[C@@H](N)Cc1ccccc1)[C@@H](C)CC)[C@@H](C)CC)C(=O)N[C@@H](Cc1c[nH]cn1)C(=O)NCC(=O)N[C@@H](CC(C)C)C(=O)N[C@H](C(=O)N[C@@H](Cc1c[nH]cn1)C(=O)N[C@@H](CCCNC(=N)N)C(=O)N[C@@H](CCCNC(=N)N)C(=O)N[C@@H](CCCNC(=N)N)C(=O)N[C@@H](Cc1c[nH]cn1)C(N)=O)[C@@H](C)CC [Peptide G13P-Chr-1] (H-FFGWLIKGAIHAPKAIHGLIHRRRH-NH2)
interaction of peptide with chloramphenicol (by FICI) (E. coli ATCC 25922 [1]): synergy (FICI < 0.5 is considered to indicate synergy)
Antibacterial activity (MIC) after incubating peptide at 4 °C (E. coli (ATCC 25922)): 5 µM
Antibacterial activity (MIC) after incubating peptide at 60 °C (E. coli (ATCC 25922)): 8.6 µM
Antibacterial activity (MIC) after incubating peptide at 90 °C (E. coli (ATCC 25922)): 12.3 µM
Antibacterial activity (MIC) in the presence of 10% FBS (E. coli ATCC 25922 [2]): 8.6 µM
Antibacterial activity (MIC) in the presence of FeCl3 (E. coli ATCC 25922 [2]): 4.1 µM
Antibacterial activity (MIC) in the presence of KCl (E. coli ATCC 25922 [2]): 4.3 µM
Antibacterial activity (MIC) in the presence of MgCl2 (E. coli ATCC 25922 [2]): 4.3 µM
Antibacterial activity (MIC) in the presence of NH4Cl (E. coli ATCC 25922 [2]): 2.0 µM
Antibacterial activity (MIC) in the presence of NaCl (E. coli ATCC 25922 [2]): 8.6 µM
TNF-α production in serum [3]: significant reduction
MIC [4]: 3 µM (≈ 8.79 µg/mL)
MIC [5]: 3 µM (≈ 8.79 µg/mL)
MIC [6]: 6.8 µM (≈ 19.9 µg/mL)
MIC [7]: 1.6 µM (≈ 4.69 µg/mL)
MIC [8]: 5 µM (≈ 14.7 µg/mL)
MIC [9]: 3 µM (≈ 8.79 µg/mL)
MIC [10]: 3 µM (≈ 8.79 µg/mL)
MIC [11]: 1.6 µM (≈ 4.69 µg/mL)
MIC [12]: 1.6 µM (≈ 4.69 µg/mL)
MIC [13]: 6.8 µM (≈ 19.9 µg/mL)
MIC [14]: 13.6 µM (≈ 39.9 µg/mL)
MIC (Cryptococcus neoformans): 13.6 µM (≈ 39.9 µg/mL)
MIC [15]: 6.8 µM (≈ 19.9 µg/mL)
survival of mice [16]: 40%
